Target: PDE 4 enzyme
Assay: PDE 4 enzyme inhibition (Scintillation Proximity Assay, enzyme purified from human polymorphonuclear leukocytes)
Format: biochemical
Conditions: PDE 4 from human PMNs; SPA, [3H]cAMP, 40 minutes at 30° C.; read-out: IC50 (concentration required to inhibit cyclic nucleotide hydrolysis by 50%)
Procedure: Human polymorphonuclear leukocyte isolation
The polymorphonuclear leukocytes (PMNs) were isolated from peripheral blood of healthy volunteers according to Boyum A. (Scand. J. Immunol., 1976, 5th suppl., 9). Briefly, the PMNs were purified by Ficoll-Paque gradient centrifugation followed by sedimentation on dextran and the erythrocyte contamination was eliminated by hypotonic lysis.
PDE 4 enzyme purification
The human PMNs were suspended in TRIS/HCl buffer (10 mM, pH 7.8) containing MgCl2 (5 mM), EGTA (4 mM), mercaptoethanol (5 mM), TRITON-X100 (1%), pepstatin A (1 μM), PMSF (100 μM) and leupeptin (1 μM), and homogenised by Polytron homogeniser. The homogenate was centrifuged at 25,000×g for 30 minutes at 4° C. and the PDE 4 enzyme was purified by ion exchange chromatography using the FPLC technique according to Schudt C. et al. (Naunyn-Schmidberg's Arch. Pharmacol., 1991, 334, 682). The supernatant was seeded on a UNO Q12 column (Bio-Rad) and the enzyme was eluted by sodium acetate linear gradient from 50 mM to 1M using a flow rate of 4.5 ml/minutes. […]
The enzyme activity was evaluated with a Scintillation Proximity Assay (SPA) kit (Amersham). […]
SPA beads (50 μl) containing 18 mM zinc sulphate were added to stop the reaction and after 20 minutes at room temperature the radioactivity was measured using a scintillation counter. […]

## CS(=O)(=O)N1Cc2c(ccc(OC(F)F)c2OC2CCCO2)C(Cc2c(Cl)cncc2Cl)=N1 (stereo not shown) [Compound 10, 1-(3,5-dichloro-pyridin-4-ylmethyl)-3-methansulphonyl-6-difluoromethoxy-5-(tetrahydro-furan-2-yloxy)-4H-phthalazine]
  IC50: 8 ± 0.5 nM

Source: patent US6340684B1, “Phthalazine derivatives as phosphodiesterase 4 inhibitors” (Zambon Group S.p.A., priority 1998, dated 2002)
